Non-standard residues stand in square brackets, D forms with d. No end group written: not given here. hArg = N=C(N)NCCCC[C@H](N)C(=O)O; Agb = N=C(N)NCC[C@H](N)C(=O)O; Orn = NCCC[C@H](N)C(=O)O; Dab = NCC[C@H](N)C(=O)O

The subject of one assay is S. aureus (MRSA SAP0017). It counts as cell-based, Staphylococcus aureus. The note with it: SPOT synthesized control peptides, determined as in Table 5; Table 7. On the procedure:
Methods of assessment of anti-biofilm activity: MRSA S. aureus strain SAP0017 biofilm formation was initially analyzed using a static abiotic solid surface assay as described elsewhere (de la Fuente-Nunez et al., 2012) and shown graphically in FIG. 2. Dilutions (1/100) of overnight cultures were incubated in BM2 biofilm-adjusted medium [62 mM potassium phosphate buffer (pH 7), 7 mM (NH4)2SO4, 2 mM MgSO4, 10 μM FeSO4, 0.4% (wt/vol) glucose, 0.5% (wt/vol) Casamino Acids], or a nutrient rich medium such as Tryptic soy broth supplemented with 1% glucose, in polypropylene microtiter plates (Falcon, United States) in the absence (control) or presence of peptide. Peptide was added at time zero (prior to adding the diluted, overnight cultures) in varying concentrations, and the amount biofilm formation was recorded after 22-46 h incubation for most bacteria. To quantify biofilm growth, planktonic cells were removed and biofilm cells adhering to the side of the wells were stained with crystal violet, and absorbance at 595 nm was measured using a microtiter plate reader (Bio-Tek Instruments Inc., United States).
On to “C106 (VR[Orn]IVAVRIWRR-NH2; N-terminus assumed; SMILES CC[C@H](C)[C@H](NC(=O)[C@H](CCCNC(=N)N)NC(=O)[C@@H](NC(=O)[C@H](C)NC(=O)[C@@H](NC(=O)[C@@H](NC(=O)[C@H](CCCN)NC(=O)[C@H](CCCNC(=N)N)NC(=O)[C@@H](N)C(C)C)[C@@H](C)CC)C(C)C)C(C)C)C(=O)N[C@@H](Cc1c[nH]c2ccccc12)C(=O)N[C@@H](CCCNC(=N)N)C(=O)N[C@@H](CCCNC(=N)N)C(N)=O) [Peptide C106]”, for which the “% Biofilm Inhibition” value was found to be 104%.
On to C107 (VRL[Orn]VAVRIWRR) [Peptide C107], for which the “% Biofilm Inhibition” value was found to be 71%.
Same read-out and setting: the result for “C108 (VRLI[Orn]AVRIWRR-NH2; N-terminus assumed; SMILES CC[C@H](C)[C@H](NC(=O)[C@H](CC(C)C)NC(=O)[C@H](CCCNC(=N)N)NC(=O)[C@@H](N)C(C)C)C(=O)N[C@@H](CCCN)C(=O)N[C@@H](C)C(=O)N[C@H](C(=O)N[C@@H](CCCNC(=N)N)C(=O)N[C@H](C(=O)N[C@@H](Cc1c[nH]c2ccccc12)C(=O)N[C@@H](CCCNC(=N)N)C(=O)N[C@@H](CCCNC(=N)N)C(N)=O)[C@@H](C)CC)C(C)C) [Peptide C108]” reads 104%; that for “C109 (VRLIVA[Orn]RIWRR-NH2; N-terminus assumed; SMILES CC[C@H](C)[C@H](NC(=O)[C@H](CCCNC(=N)N)NC(=O)[C@H](CCCN)NC(=O)[C@H](C)NC(=O)[C@@H](NC(=O)[C@@H](NC(=O)[C@H](CC(C)C)NC(=O)[C@H](CCCNC(=N)N)NC(=O)[C@@H](N)C(C)C)[C@@H](C)CC)C(C)C)C(=O)N[C@@H](Cc1c[nH]c2ccccc12)C(=O)N[C@@H](CCCNC(=N)N)C(=O)N[C@@H](CCCNC(=N)N)C(N)=O) [Peptide C109]”, 104%; that for “C110 (VRLIVAVR[Orn]WRR-NH2; N-terminus assumed; SMILES CC[C@H](C)[C@H](NC(=O)[C@H](CC(C)C)NC(=O)[C@H](CCCNC(=N)N)NC(=O)[C@@H](N)C(C)C)C(=O)N[C@H](C(=O)N[C@@H](C)C(=O)N[C@H](C(=O)N[C@@H](CCCNC(=N)N)C(=O)N[C@@H](CCCN)C(=O)N[C@@H](Cc1c[nH]c2ccccc12)C(=O)N[C@@H](CCCNC(=N)N)C(=O)N[C@@H](CCCNC(=N)N)C(N)=O)C(C)C)C(C)C) [Peptide C110]”, 100%.
As to C111 (VRLIVAVRI[Orn]RR) [Peptide C111], the “% Biofilm Inhibition” value was 92%.

Still in this assay, the particulars now being: SPOT synthesized peptide, ~12.5 μM, clinical MRSA strain, crystal violet assay.
Take “DabRLIVAVRIWRR ([Dab]RLIVAVRIWRR-NH2; N-terminus assumed; SMILES CC[C@H](C)[C@H](NC(=O)[C@H](CCCNC(=N)N)NC(=O)[C@@H](NC(=O)[C@H](C)NC(=O)[C@@H](NC(=O)[C@@H](NC(=O)[C@H](CC(C)C)NC(=O)[C@H](CCCNC(=N)N)NC(=O)[C@@H](N)CCN)[C@@H](C)CC)C(C)C)C(C)C)C(=O)N[C@@H](Cc1c[nH]c2ccccc12)C(=O)N[C@@H](CCCNC(=N)N)C(=O)N[C@@H](CCCNC(=N)N)C(N)=O) [Peptide 1018-k13]”: the “% Residual MRSA biofilm growth compared to untreated control” value (“% Residual MRSA biofilm growth” below) amounted to 59%.
On to “GbutRLIVAVRIWRR ([Agb]RLIVAVRIWRR-NH2; N-terminus assumed; SMILES CC[C@H](C)[C@H](NC(=O)[C@H](CCCNC(=N)N)NC(=O)[C@@H](NC(=O)[C@H](C)NC(=O)[C@@H](NC(=O)[C@@H](NC(=O)[C@H](CC(C)C)NC(=O)[C@H](CCCNC(=N)N)NC(=O)[C@@H](N)CCNC(=N)N)[C@@H](C)CC)C(C)C)C(C)C)C(=O)N[C@@H](Cc1c[nH]c2ccccc12)C(=O)N[C@@H](CCCNC(=N)N)C(=O)N[C@@H](CCCNC(=N)N)C(N)=O) [Peptide 1018-r13]”, for which the “% Residual MRSA biofilm growth” value is 47%.
“HarRLIVAVRIWRR ([hArg]RLIVAVRIWRR-NH2; N-terminus assumed; SMILES CC[C@H](C)[C@H](NC(=O)[C@H](CCCNC(=N)N)NC(=O)[C@@H](NC(=O)[C@H](C)NC(=O)[C@@H](NC(=O)[C@@H](NC(=O)[C@H](CC(C)C)NC(=O)[C@H](CCCNC(=N)N)NC(=O)[C@@H](N)CCCCNC(=N)N)[C@@H](C)CC)C(C)C)C(C)C)C(=O)N[C@@H](Cc1c[nH]c2ccccc12)C(=O)N[C@@H](CCCNC(=N)N)C(=O)N[C@@H](CCCNC(=N)N)C(N)=O) [Peptide 1018-r25]”: the “% Residual MRSA biofilm growth” value came to 64%.
As for “IVKWIAQWKLVG (IVKWIAQWKLVG-NH2) [Imax-10]”, the “% Residual MRSA biofilm growth” value was determined as 100%.
On to “KKQKKIWRRILV (KKQKKIWRRILV-NH2) [Mmax-16]”, for which the “% Residual MRSA biofilm growth” value worked out at 105%.
On to “OrnRLIVAVRIWRR ([Orn]RLIVAVRIWRR-NH2; N-terminus assumed; SMILES CC[C@H](C)[C@H](NC(=O)[C@H](CCCNC(=N)N)NC(=O)[C@@H](NC(=O)[C@H](C)NC(=O)[C@@H](NC(=O)[C@@H](NC(=O)[C@H](CC(C)C)NC(=O)[C@H](CCCNC(=N)N)NC(=O)[C@@H](N)CCCN)[C@@H](C)CC)C(C)C)C(C)C)C(=O)N[C@@H](Cc1c[nH]c2ccccc12)C(=O)N[C@@H](CCCNC(=N)N)C(=O)N[C@@H](CCCNC(=N)N)C(N)=O) [Peptide 1018-k25]”, for which the “% Residual MRSA biofilm growth” value is given as 44%.
With “RQVRVKRWRARW (RQVRVKRWRARW-NH2) [Mmax-18]”, the “% Residual MRSA biofilm growth” value turned out to be 100%.
Same read-out and setting: the result for “VKGAIKRGIWVK (VKGAIKRGIWVK-NH2) [Imax-5]” reads 99%; that for “VOrnLIVAVRIWRR (V[Orn]LIVAVRIWRR-NH2; N-terminus assumed; SMILES CC[C@H](C)[C@H](NC(=O)[C@H](CCCNC(=N)N)NC(=O)[C@@H](NC(=O)[C@H](C)NC(=O)[C@@H](NC(=O)[C@@H](NC(=O)[C@H](CC(C)C)NC(=O)[C@H](CCCN)NC(=O)[C@@H](N)C(C)C)[C@@H](C)CC)C(C)C)C(C)C)C(=O)N[C@@H](Cc1c[nH]c2ccccc12)C(=O)N[C@@H](CCCNC(=N)N)C(=O)N[C@@H](CCCNC(=N)N)C(N)=O) [Peptide 1018-k26]”, 63%.
For the substance “VRLIVAVHarIWRR (VRLIVAV[hArg]IWRR-NH2; N-terminus assumed; SMILES CC[C@H](C)[C@H](NC(=O)[C@H](CCCCNC(=N)N)NC(=O)[C@@H](NC(=O)[C@H](C)NC(=O)[C@@H](NC(=O)[C@@H](NC(=O)[C@H](CC(C)C)NC(=O)[C@H](CCCNC(=N)N)NC(=O)[C@@H](N)C(C)C)[C@@H](C)CC)C(C)C)C(C)C)C(=O)N[C@@H](Cc1c[nH]c2ccccc12)C(=O)N[C@@H](CCCNC(=N)N)C(=O)N[C@@H](CCCNC(=N)N)C(N)=O) [Peptide 1018-r32]”, the “% Residual MRSA biofilm growth” value turned out to be 45%.
On to “VRLIVAVOrnIWRR (VRLIVAV[Orn]IWRR-NH2; N-terminus assumed; SMILES CC[C@H](C)[C@H](NC(=O)[C@H](CCCN)NC(=O)[C@@H](NC(=O)[C@H](C)NC(=O)[C@@H](NC(=O)[C@@H](NC(=O)[C@H](CC(C)C)NC(=O)[C@H](CCCNC(=N)N)NC(=O)[C@@H](N)C(C)C)[C@@H](C)CC)C(C)C)C(C)C)C(=O)N[C@@H](Cc1c[nH]c2ccccc12)C(=O)N[C@@H](CCCNC(=N)N)C(=O)N[C@@H](CCCNC(=N)N)C(N)=O) [Peptide 1018-k32]”, for which the “% Residual MRSA biofilm growth” value was 46%.
“VRLIVAVRIWHarR (VRLIVAVRIW[hArg]R-NH2; N-terminus assumed; SMILES CC[C@H](C)[C@H](NC(=O)[C@H](CCCNC(=N)N)NC(=O)[C@@H](NC(=O)[C@H](C)NC(=O)[C@@H](NC(=O)[C@@H](NC(=O)[C@H](CC(C)C)NC(=O)[C@H](CCCNC(=N)N)NC(=O)[C@@H](N)C(C)C)[C@@H](C)CC)C(C)C)C(C)C)C(=O)N[C@@H](Cc1c[nH]c2ccccc12)C(=O)N[C@@H](CCCCNC(=N)N)C(=O)N[C@@H](CCCNC(=N)N)C(N)=O) [Peptide 1018-r35]”: the “% Residual MRSA biofilm growth” value was determined as 33%.
The same measure, in the same setting: the result for “VRLIVAVRIWOrnR (VRLIVAVRIW[Orn]R-NH2; N-terminus assumed; SMILES CC[C@H](C)[C@H](NC(=O)[C@H](CCCNC(=N)N)NC(=O)[C@@H](NC(=O)[C@H](C)NC(=O)[C@@H](NC(=O)[C@@H](NC(=O)[C@H](CC(C)C)NC(=O)[C@H](CCCNC(=N)N)NC(=O)[C@@H](N)C(C)C)[C@@H](C)CC)C(C)C)C(C)C)C(=O)N[C@@H](Cc1c[nH]c2ccccc12)C(=O)N[C@@H](CCCN)C(=O)N[C@@H](CCCNC(=N)N)C(N)=O) [Peptide 1018-k35]” reads 34%.
Take “VRLIVAVRIWRHar (VRLIVAVRIWR[hArg]-NH2; N-terminus assumed; SMILES CC[C@H](C)[C@H](NC(=O)[C@H](CCCNC(=N)N)NC(=O)[C@@H](NC(=O)[C@H](C)NC(=O)[C@@H](NC(=O)[C@@H](NC(=O)[C@H](CC(C)C)NC(=O)[C@H](CCCNC(=N)N)NC(=O)[C@@H](N)C(C)C)[C@@H](C)CC)C(C)C)C(C)C)C(=O)N[C@@H](Cc1c[nH]c2ccccc12)C(=O)N[C@@H](CCCNC(=N)N)C(=O)N[C@@H](CCCCNC(=N)N)C(N)=O) [Peptide 1018-r36]”: the “% Residual MRSA biofilm growth” value came out at 27%.
Consider “VRLIVAVRIWROrn (VRLIVAVRIWR[Orn]-NH2; N-terminus assumed; SMILES CC[C@H](C)[C@H](NC(=O)[C@H](CCCNC(=N)N)NC(=O)[C@@H](NC(=O)[C@H](C)NC(=O)[C@@H](NC(=O)[C@@H](NC(=O)[C@H](CC(C)C)NC(=O)[C@H](CCCNC(=N)N)NC(=O)[C@@H](N)C(C)C)[C@@H](C)CC)C(C)C)C(C)C)C(=O)N[C@@H](Cc1c[nH]c2ccccc12)C(=O)N[C@@H](CCCNC(=N)N)C(=O)N[C@@H](CCCN)C(N)=O) [Peptide 1018-k36]”, for which the “% Residual MRSA biofilm growth” value stood at 20%.

The values are drawn from patent publication US20210138025A1, “CATIONIC PEPTIDES WITH IMMUNOMODULATORY AND/OR ANTI-BIOFILM ACTIVITIES” (priority 2018, published 2021).
